The source of these data is patent US4520026A, “Indolizine derivatives and use as cardiovascular agents” (S. A. Labaz N.V., priority 1982, dated 1985).

Where only a bound is given, the exact number is not on record here.

For assay [1], the system named is epinephrine-increased blood-pressure (anti-α effect). Nature of the assay: Antiadrenergic effect: anti-α effect (reduction of epinephrine-increased blood-pressure). It is filed as in vivo. The note with it: dog; for inhibition in vivo at 7.5 mg/kg: dose 7.5 mg/kg i.v. The method, then:
(§1) The purpose of this test was to determine the capacity of the compounds under study to reduce epinephrine-increased blood-pressure (anti-α effect) and epinephrine-accelerated heart rate (anti-β effect) in the dog previously anaesthetized with pentobarbital and atropinized.
(§2) For each dog, the dose of epinephrine was first determined which provoked a reproductible increase by about 100 mm. Hg in the arterial pressure (between 5 and 10 μg/kg). After that, the dose of epinephrine so determined was administered followed by a dose by intravenous route of the compound to be studied. The percentage of reduction of the hypertension provoked by the compound under study in comparison with the hypertension previously obtained (about 100 mm. Hg) was then registered.
(§3) The percentage of reduction of the epinephrine-induced acceleration of heart-rate produced by the compound under study in comparison with the tachycardia previously measured (about 70 beats) was then registered. In both cases, the results were expressed as follows: […]
(§4) + for a <50%-reduction of the increase in pressure or cardiac frequency
(§5) ++ for a ≥50%-reduction of the increase in pressure or cardiac frequency
(§6) +++ for a subtotal reduction of the increase in pressure or cardiac frequency

In assay [2] the test system is epinephrine-accelerated heart rate (anti-β effect). Nature of the assay: Antiadrenergic effect: anti-β effect (reduction of epinephrine-accelerated heart rate). Format: in vivo. The note with it: dog; for inhibition in vivo at 7.5 mg/kg: dose 7.5 mg/kg i.v. The method, then: as §1, §2, §3, §4, §5, §6
The mark [3] stands for this setting: Canis lupus familiaris, iv, dose 10 mg/kg i.v.
[4] abbreviates: Canis lupus familiaris, iv, dose 7.8 mg/kg i.v.
Setting [5] is: Canis lupus familiaris, iv, dose 5 mg/kg i.v.
Setting [6] is: Canis lupus familiaris, iv, dose 7 mg/kg i.v.

With `CCCc1c(Br)c2ccccn2c1C(=O)c1cc(Br)c(OCCCN(CCC)CCC)c(Br)c1` [Br/Br/Br/n-C3H7/n-C3H7/3, 1-Bromo-2-n-propyl-3-[4-(3-di-n-propylaminopropyl)-oxy-3,5-dibromo-benzoyl]-indolizine], the Anti-α effect entry in assay [1] (dose 10 mg/kg i.v.) is listed as “+++”. In addition, in assay [2] (dose 10 mg/kg i.v.), the Anti-β effect entry is “+++”.
As to `CCCCN(CCCC)CCCOc1ccc(C(=O)c2c(-c3ccc(F)cc3)c(Br)c3ccccn23)cc1Br` [Br/Br/H/drawing 23/n-C4H9/3], the Anti-α effect result in assay [1] (dose 10 mg/kg i.v.) is on record as “+++”. For the same compound, the inhibition in vivo at 10 mg/kg in assay [2] (setting [3]) is more than 50%.
As to `CCCN(CCC)CCCOc1c(Cl)cc(C(=O)c2c(-c3ccccc3)c(Br)c3ccccn23)cc1Cl` [Br/Cl/Cl/drawing 39/n-C3H7/3, 1-Bromo-2-phenyl-3-[4-(3-di-n-propylaminopropyl)-oxy-3,5-dichloro-benzoyl]-indolizine], the inhibition in vivo at 10 mg/kg in assay [1] (setting [3]) and in assay [2] (setting [3]) was more than 50% each time.
Regarding `CCCCN(CCCC)CCCOc1c(Cl)cc(C(=O)c2c(-c3ccccc3)c(Br)c3ccccn23)cc1Cl` [Br/Cl/Cl/drawing 40/n-C4H9/3, 1-Bromo-2-phenyl-3-[4-(3-di-n-butylaminopropyl)-oxy-3,5-dichloro-benzoyl]-indolizine], the inhibition in vivo at 10 mg/kg in assay [1] (setting [3]) and in assay [2] (setting [3]) was more than 50% each time.
As for `CCCN(CCC)CCCOc1ccc(C(=O)c2c(CC)c(Br)c3ccccn23)cc1Cl` [Br/Cl/H/C2H5/n-C3H7/3, 1-Bromo-2-ethyl-3-[4-(3-di-n-propylaminopropyl)-oxy-3-chloro-benzoyl]-indolizine], the inhibition in vivo at 7.8 mg/kg in assay [1] (setting [4]) and in assay [2] (setting [4]) was more than 50% in each case.
In the case of `CCCCN(CCCC)CCCOc1ccc(C(=O)c2c(CC)c(Br)c3ccccn23)cc1Cl` [Br/Cl/H/C2H5/n-C4H9/3, 1-Bromo-2-ethyl-3-[4-(3-di-n-butylaminopropyl)-oxy-3-chloro-benzoyl]-indolizine], the Anti-α effect result in assay [1] (dose 10 mg/kg i.v.) is “+++”. The Anti-β effect result in assay [2] (dose 10 mg/kg i.v.) is listed as “+++”.
`CCCCN(CCCC)CCCOc1ccc(C(=O)c2c(-c3ccccc3)c(Br)c3ccccn23)cc1Cl` [Br/Cl/H/drawing 26/n-C4H9/3]: the inhibition in vivo at 10 mg/kg in assay [1] (setting [3]) was more than 50%. The Anti-β effect entry in assay [2] (dose 10 mg/kg i.v.) is “+++”.
Regarding `CCCN(CCC)CCCOc1ccc(C(=O)c2c(-c3ccc(Br)cc3)c(Br)c3ccccn23)cc1Cl` [Br/Cl/H/drawing 27/n-C3H7/3], the inhibition in vivo at 10 mg/kg in assay [1] (setting [3]) and in assay [2] (setting [3]) was more than 50% in each case.
On to `CCCCN(CCCC)CCCOc1ccc(C(=O)c2c(-c3ccc(Cl)cc3)c(Br)c3ccccn23)cc1Cl` [Br/Cl/H/drawing 28/n-C4H9/3], for which the inhibition in vivo at 10 mg/kg in assay [1] (setting [3]) and in assay [2] (setting [3]) was more than 50% each time.
On to `CCCN(CCC)CCCOc1ccc(C(=O)c2c(-c3ccc(Cl)cc3)c(Br)c3ccccn23)cc1Cl` [Br/Cl/H/drawing 30/n-C3H7/3], for which the Anti-α effect entry in assay [1] (dose 10 mg/kg i.v.) is listed as “+++”. The compound also came in with an inhibition in vivo at 10 mg/kg in assay [2] (setting [3]) of more than 50%.
On to `CCCN(CCC)CCCOc1ccc(C(=O)c2c(-c3cccc(Br)c3)c(Br)c3ccccn23)cc1Cl` [Br/Cl/H/drawing 32/n-C3H7/3], for which, in assay [1] (dose 10 mg/kg i.v.), the Anti-α effect result is on record as “+++”. For the same compound, in assay [2] (dose 10 mg/kg i.v.), the Anti-β effect result is “+++”.
On to `CCCCN(CCCC)CCCOc1ccc(C(=O)c2c(CC)c(Br)c3ccccn23)cc1` [Br/H/H/C2H5/n-C4H9/3, 1-Bromo-2-ethyl-3-[4-(3-di-n-butylaminopropyl)-oxy-benzoyl]-indolizine], for which the Anti-α effect entry in assay [1] (dose 6 mg/kg i.v.) is given as “+++”. For the same compound, the Anti-β effect entry in assay [2] (dose 6 mg/kg i.v.) is recorded as “+++”.
Take `CCCCN(CCCC)CCCOc1ccc(C(=O)c2c(CC)c(Br)c3ccccn23)cc1OC` [Br/OCH3/H/C2H5/n-C4H9/3, 1-Bromo-2-ethyl-3-[4-(3-di-n-butylaminopropyl)-oxy-3-methoxy-benzoyl]-indolizine]: the inhibition in vivo at 5 mg/kg in assay [1] (setting [5]) and in assay [2] (setting [5]) was more than 50% in each case.
For `CCCN(CCC)CCCOc1ccc(C(=O)c2c(C)c(Br)c3ccccn23)cc1OC` [Br/OCH3/H/CH3/n-C3H7/3, 1-Bromo-2-methyl-3-[4-(3-di-n-propylaminopropyl)-oxy-3-methoxy-benzoyl]-indolizine], the inhibition in vivo at 7.5 mg/kg is more than 50% in assay [1] (Canis lupus familiaris, iv) and more than 50% in assay [2] (Canis lupus familiaris, iv).
As for `CCCCN(CCCC)CCCOc1ccc(C(=O)c2c(C)c(Br)c3ccccn23)cc1OC` [Br/OCH3/H/CH3/n-C4H9/3, 1-Bromo-2-methyl-3-[4-(3-di-n-butylaminopropyl)-oxy-3-methoxy-benzoyl]-indolizine], the inhibition in vivo at 7 mg/kg in assay [1] (setting [6]) and in assay [2] (setting [6]) was more than 50% each time.
For the compound `CCCCN(CCCC)CCCOc1ccc(C(=O)c2c(CC)c(C)c3ccccn23)cc1Br` [CH3/Br/H/C2H5/n-C4H9/3, 1-Methyl-2-ethyl-3-[4-(3-di-n-butylaminopropyl)-oxy-3-bromo-benzoyl]-indolizine], in assay [1] (dose 2 mg/kg i.v.), the Anti-α effect entry is on record as “+++”. The compound also gave an inhibition in vivo at 2 mg/kg in assay [2] (Canis lupus familiaris, iv, dose 2 mg/kg i.v.) of more than 50%.
Regarding `CCCCN(CCCC)CCCOc1ccc(C(=O)c2c(C)c(C)c3ccccn23)cc1Br` [CH3/Br/H/CH3/n-C4H9/3, 1,2-Dimethyl-3-[4-(3-di-n-butylaminopropyl)-oxy-3-bromo-benzoyl]-indolizine], the inhibition in vivo at 10 mg/kg in assay [1] (setting [3]) and in assay [2] (setting [3]) was more than 50% each time.
For the compound `CCCCN(CCCC)CCCOc1ccc(C(=O)c2c(-c3ccccc3)c(C)c3ccccn23)cc1Br` [CH3/Br/H/drawing 45/n-C4H9/3, 1-Methyl-2-phenyl-3-[4-(3-di-n-butylaminopropyl)-oxy-3-bromo-benzoyl]-indolizine], the Anti-α effect entry in assay [1] (dose 6.2 mg/kg i.v.) is “+++”. The inhibition in vivo at 6.2 mg/kg in assay [2] (Canis lupus familiaris, iv, dose 6.2 mg/kg i.v.) is more than 50%.
For the compound `CCCN(CCC)CCCOc1ccc(C(=O)c2c(-c3ccccc3)c(C)c3ccccn23)cc1Br` [CH3/Br/H/drawing 46/n-C3H7/3, 1-Methyl-2-phenyl-3-[4-(3-di-n-propylaminopropyl)-oxy-3-bromo-benzoyl]-indolizine], the inhibition in vivo at 5 mg/kg in assay [1] (setting [5]) and in assay [2] (setting [5]) was more than 50% in each case.
For `CCCCN(CCCC)CCCOc1ccc(C(=O)c2c(CCC)c(C)c3ccccn23)cc1Br` [CH3/Br/H/n-C3H7/n-C4H9/3, 1-Methyl-2-n-propyl-3-[4-(3-di-n-butylaminopropyl)-oxy-3-bromo-benzoyl]-indolizine], the Anti-α effect result in assay [1] (dose 10 mg/kg i.v.) is “+++”. For the same compound, the Anti-β effect entry in assay [2] (dose 10 mg/kg i.v.) is recorded as “+++”.
Turning to `CCCCc1c(C)c2ccccn2c1C(=O)c1ccc(OCCCN(CCCC)CCCC)c(Br)c1` [CH3/Br/H/n-C4H9/n-C4H9/3, 1-Methyl-2-n-butyl-3-[4-(3-di-n-butylaminopropyl)-oxy-3-bromo-benzoyl]-indolizine], the inhibition in vivo at 7.5 mg/kg is more than 50% in assay [1] (Canis lupus familiaris, iv) and more than 50% in assay [2] (Canis lupus familiaris, iv).
For `CCCCN(CCCC)CCCOc1ccc(C(=O)c2c(-c3ccccc3)c(C)c3ccccn23)cc1` [CH3/H/H/drawing 47/n-C4H9/3, 1-Methyl-2-phenyl-3-[4-(3-di-n-butylaminopropyl)-oxy-benzoyl]-indolizine], in assay [1] (dose 6.3 mg/kg i.v.), the Anti-α effect result is “+++”. Also, in assay [2] (dose 6.3 mg/kg i.v.), the Anti-β effect entry is reported as “+++”.
As to `CCCN(CCC)CCCOc1ccc(C(=O)c2c(-c3ccccc3)c(C)c3ccccn23)cc1` [CH3/H/H/drawing 48/n-C3H7/3, 1-Methyl-2-phenyl-3-[4-(3-di-n-propylaminopropyl)-oxy-benzoyl]-indolizine], the Anti-α effect entry in assay [1] (dose 5 mg/kg i.v.) is “+++”. Besides, in assay [2] (dose 5 mg/kg i.v.), the Anti-β effect result is “+++”.
